Molecules are shown by their SMILES. Where a name gives a salt, the structure may show the parent alone.

For this test, the target named is T1, PIM1 serine/threonine kinase (Homo sapiens, UniProt P11309).
T1 construct: purchased Carna Bioscience, Inc
The test is described as follows: PIM1 serine/threonine kinase inhibitory effect. The settings on record: PIM1 serine/threonine kinase activity; ATP 40 μM; 30° C., 30 minutes. It counts as biochemical. The protocol:
Each test substance was prepared to 10 mM with dimethylsulfoxide (DMSO), and further diluted with DMSO so as to have concentrations of 1000, 300, 100, 30, 10, 3, 1, 0.3, 0.1, 0.03, 0.01, and 0.001 μM. Moreover, each dilution was further diluted 33.3-fold with an assay buffer to prepare a test substance solution. The composition of the assay buffer was 50 mM HEPES (pH 7.0), 0.02% NaN3, 0.01% Bovine Serum Albumin, 0.1 mM Orthovanadate, 1 mM Dithiothreitol, and 5 mM MgCl2.
5 μL of each test substance solution was added to 384-well plates (n=2), and then 2.5 μL of a substrate solution (substrate 3-biotin (Cisbio Bioassays SAS), final concentration in the reaction solution: 0.5 μM) and 2.5 μL of an ATP solution (in the cases of PIM1, 2, 3, the final concentrations in the reaction solutions were 40, 2, and 10 μM, respectively) were added, 5 μL of each of PIM1, 2, 3 serine/threonine kinase solutions (Carna Bioscience, Inc., the final concentrations in the reaction solutions were 0.15, 1.6, and 0.25 μg/ml, respectively) was finally added, and the mixture was reacted at 30° C. for 30 minutes. The test substance concentrations in the reaction solutions are 10000, 3000, 1000, 300, 100, 30, 10, 3, 1, 0.3, 0.1, and 0.01 nM.
Thereafter, 15 μL of each detection solution (62.5 nM Streptavidin-XL665 (Cisbio Bioassays SAS), […] STK antibody-Cryptate (Cisbio Bioassays SAS), 50 mM HEPES (pH 7.0), 0.8 M KF, 0.1% Bovine Serum Albumin, 20 mM ethylenediaminetetraacetic acid) was added to each well. After stirring, the mixture was reacted at 30° C. for 1 hour. Absorbance (OD620, OD665) at 620 and 665 nm was measured with a microplate reader (SpectraMax M5e, Molecular Devices, LLC).
Non-linear regression analysis was performed by an SAS system (SAS Institute Inc.) using the ratio (OD665/OD620) of the measured absorbance to calculate a test substance concentration (IC50) that inhibits PIM1 serine/threonine kinase activity by 50%.

T1 sequence (P11309 whole entry): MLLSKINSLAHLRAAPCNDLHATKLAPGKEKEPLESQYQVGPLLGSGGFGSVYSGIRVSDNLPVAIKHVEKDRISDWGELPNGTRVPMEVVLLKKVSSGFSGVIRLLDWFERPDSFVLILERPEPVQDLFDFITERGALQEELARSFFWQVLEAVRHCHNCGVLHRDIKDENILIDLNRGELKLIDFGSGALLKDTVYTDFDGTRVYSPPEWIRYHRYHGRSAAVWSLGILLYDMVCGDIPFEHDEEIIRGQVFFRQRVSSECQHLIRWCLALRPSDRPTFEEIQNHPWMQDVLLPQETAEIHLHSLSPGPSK

In general, IC50 refers to the concentration needed to halve the response being measured. A higher IC50 goes with a need for much substance. As for `NCCCNc1cc(-c2n[nH]c(=O)o2)ccc1C(F)(F)F` [Example 2, 5-{3-[(3-aminopropyl)amino]-4-(trifluoromethyl)phenyl}-1,3,4-oxadiazol-2(3H)-one], the half-maximal inhibitory concentration (IC50) was 27 nM.
The value for `CC(C)(C)OC(=O)N1CCN(c2cc(-c3n[nH]c(=O)o3)ccc2Cl)CC1` [Example 7, tert-butyl 4-[2-chloro-5-(5-oxo-4,5-dihydro-1,3,4-oxadiazol-2-yl)phenyl]piperazine-1-carboxylate] was 4100 nM; that for `O=c1[nH]nc(-c2ccc(Cl)c(N3CCNCC3)c2)o1` [Example 8, 5-[4-chloro-3-(piperazin-1-yl)phenyl]-1,3,4-oxadiazol-2(3H)-one hydrochloride] was 810 nM; that for `NC1CCN(c2cc(-c3n[nH]c(=O)o3)ccc2C(F)(F)F)CC1` [Example 9, 5-[3-(4-aminopiperidin-1-yl)-4-(trifluoromethyl)phenyl]-1,3,4-oxadiazol-2(3H)-one hydrochloride] was 45 nM.
The value for `CC(C)(C)OC(=O)NCc1cccc(-c2cc(-c3n[nH]c(=O)o3)ccc2Cl)c1` [Example 17, tert-butyl {[2′-chloro-5′-(5-oxo-4,5-dihydro-1,3,4-oxadiazol-2-yl)[1,1′-biphenyl]-3-yl]methyl}carbamate] was 1300 nM; that for `CC(C)(C)OC(=O)NCc1ccc(-c2cc(-c3n[nH]c(=O)o3)ccc2C(F)(F)F)cc1` [Example 19, tert-butyl {[5′-(5-oxo-4,5-dihydro-1,3,4-oxadiazol-2-yl)-2′-(trifluoromethyl)[1,1′-biphenyl]-4-yl]methyl}carbamate] was 1500 nM.
`NCc1cccc(-c2cc(-c3n[nH]c(=O)o3)ccc2C(F)(F)F)c1` [Example 21, 5-[3′-(aminomethyl)-6-(trifluoromethyl)[1,1′-biphenyl]-3-yl]-1,3,4-oxadiazol-2(3H)-one hydrochloride]: the IC50 was determined as 160 nM. Against the preceding molecule, the IC50 is about 9.4-fold lower.
`O=c1[nH]nc(-c2ccc(C(F)(F)F)c(-c3ccc(OCC4CCNCC4)cc3)c2)o1` [Example 23, 5-{4′-[(piperidin-4-yl)methoxy]-6-(trifluoromethyl)[1,1′-biphenyl]-3-yl}-1,3,4-oxadiazol-2(3H)-one hydrochloride] gave a 50% inhibitory concentration (IC50) of 110 nM.
The result for `NCc1ccc(Nc2cc(-c3n[nH]c(=O)o3)ccc2C(F)(F)F)cc1` [Example 41, 5-{3-[4-(aminomethyl)anilino]-4-(trifluoromethyl)phenyl}-1,3,4-oxadiazol-2(3H)-one hydrochloride] reads 40 nM; that for `N[C@H]1CC[C@H](CNc2cccc(-c3n[nH]c(=O)o3)c2)CC1` [Example 62, 5-[3-({[(1r,4r)-4-aminocyclohexyl]methyl}amino)phenyl]-1,3,4-oxadiazol-2(3H)-one hydrochloride], 140 nM; that for `C[C@H](Nc1cc(-c2n[nH]c(=O)o2)ccc1F)C1CCNCC1` [Example 80, 5-(4-fluoro-3-{[(1S)-1-(piperidin-4-yl)ethyl]amino}phenyl)-1,3,4-oxadiazol-2(3H)-one hydrochloride], 56 nM.
The result for `COc1ccc(-c2n[nH]c(=O)o2)cc1N[C@@H](C)C1CCNCC1` [Example 82, 5-(4-methoxy-3-{[(1S)-1-(piperidin-4-yl)ethyl]amino}phenyl)-1,3,4-oxadiazol-2(3H)-one dihydrochloride] reads 71 nM; that for `Cc1c(-c2n[nH]c(=O)o2)cc(Cl)c(Cl)c1N[C@@H](C)C1CCNCC1` [Example 93, 5-(4,5-dichloro-2-methyl-3-{[(1S)-1-(piperidin-4-yl)ethyl]amino}phenyl)-1,3,4-oxadiazol-2(3H)-one hydrochloride], 36 nM; that for `C[C@H](Nc1cc(-c2n[nH]c(=O)o2)cc(C2CC2)c1Cl)C1CCNCC1` [Example 102, 5-(4-chloro-3-cyclopropyl-5-{[(1S)-1-(piperidin-4-yl)ethyl]amino}phenyl)-1,3,4-oxadiazol-2(3H)-one], 36 nM.
The value for `C[C@H](Nc1cc(-c2n[nH]c(=O)o2)ccn1)C1CCNCC1` [Example 112, 5-(2-{[(1S)-1-(piperidin-4-yl)ethyl]amino}pyridin-4-yl)-1,3,4-oxadiazol-2(3H)-one dihydrochloride] was 600 nM; that for `CC(C)(C)OC(=O)[C@H]1CC[C@H](CNc2cc(-c3n[nH]c(=O)o3)ccc2C(F)(F)F)CC1` [Example 118, tert-butyl (1r,4r)-4-{[5-(5-oxo-4,5-dihydro-1,3,4-oxadiazol-2-yl)-2-(trifluoromethyl)anilino]methyl}cyclohexane-1-carboxylate] was 7300 nM.
For `O=c1[nH]nc(-c2ccc(C(F)(F)F)c(NC[C@H]3CC[C@H](C(=O)O)CC3)c2)o1` [Example 119, (1r,4r)-4-{[5-(5-oxo-4,5-dihydro-1,3,4-oxadiazol-2-yl)-2-(trifluoromethyl)anilino]methyl}cyclohexane-1-carboxylic acid], inhibition was half-maximal at 1800 nM (IC50).
Molecule `O=c1[nH]nc(-c2ccc(C(F)(F)F)c(NC[C@H]3CC[C@H](CO)CC3)c2)o1` [Example 120, 5-[3-({[(1r,4r)-4-(hydroxymethyl)cyclohexyl]methyl}amino)-4-(trifluoromethyl)phenyl]-1,3,4-oxadiazol-2(3H)-one] had an IC50 of 590 nM.
On to `NC(=O)[C@H]1CC[C@H](CNc2cc(-c3n[nH]c(=O)o3)ccc2C(F)(F)F)CC1` [Example 121, (1r,4r)-4-{[5-(5-oxo-4,5-dihydro-1,3,4-oxadiazol-2-yl)-2-(trifluoromethyl)anilino]methyl}cyclohexane-1-carboxamide], for which the IC50 was 120 nM.
The value for `C[C@H](Nc1cc(-c2n[nH]c(=O)o2)ccc1S(C)(=O)=O)C1CCNCC1` [Example 128, 5-[4-(methanesulfonyl)-3-{[(1S)-1-(piperidin-4-yl)ethyl]amino}phenyl]-1,3,4-oxadiazol-2(3H)-one hydrochloride] was 82 nM; that for `CC(C[C@@H]1CCNC1)Nc1cc(-c2n[nH]c(=O)o2)ccc1C(F)(F)F` (stereo partly drawn) [Example 134, 5-[3-({1-[(3S)-pyrrolidin-3-yl]propan-2-yl}amino)-4-(trifluoromethyl)phenyl]-1,3,4-oxadiazol-2(3H)-one hydrochloride] was 14 nM.
The value for `CC(C[C@H]1CCNC1)Nc1cc(-c2n[nH]c(=O)o2)ccc1C(F)(F)F` (stereo partly drawn) [Example 136, 5-[3-({1-[(3R)-pyrrolidin-3-yl]propan-2-yl}amino)-4-(trifluoromethyl)phenyl]-1,3,4-oxadiazol-2(3H)-one hydrochloride] was 16 nM; that for `O=c1[nH]nc(-c2ccc(C(F)(F)F)c(N[C@@H](C3CCNCC3)C(F)(F)F)c2)o1` [Example 147, 5-[4-(trifluoromethyl)-3-{[(1S)-2,2,2-trifluoro-1-(piperidin-4-yl)ethyl]amino}phenyl]-1,3,4-oxadiazol-2(3H)-one hydrochloride] was 23 nM.
Molecule `CN(Cc1cc(-c2n[nH]c(=O)o2)ccc1Cl)C1CCNCC1` [Example 205, 5-(4-chloro-3-{[methyl(piperidin-4-yl)amino]methyl}phenyl)-1,3,4-oxadiazol-2(3H)-one dihydrochloride] came in with an IC50 of 290 nM. This IC50 is about 13-fold higher than that of the molecule before.
The result for `CC(=O)N1CCC(N(C)Cc2cc(-c3n[nH]c(=O)o3)ccc2Cl)CC1` [Example 215, 5-(3-{[(1-acetylpiperidin-4-yl)(methyl)amino]methyl}-4-chlorophenyl)-1,3,4-oxadiazol-2(3H)-one hydrochloride] reads 8800 nM.

The record behind these values is US20220024921A1, “1,3,4-OXADIAZOLONE COMPOUND AND PHARMACEUTICAL” (NIPPON SHINYAKU CO., LTD., priority 2018, published 2022).
